These results are taken from patent US20080069776A1, “HISTOFLUORESCENT STAIN FOR ENDOSCOPY” (PENTAX CORPORATION, priority 2006, published 2008).

Series [1] can be described thus: Absorbance and fluorescence spectra of the dye in distilled water (spectrophotometer / fluorescence spectrophotometer). It counts as physicochemical. The note with it: for maximum absorption wavelength / maximum fluorescence wavelength / maximum excitation wavelength: 0.001 mg/mL in distilled water; for maximum absorption wavelength: absorbance measured 200 to 750 nm; for maximum fluorescence wavelength: excited at maximum absorption wavelength; for maximum fluorescence wavelength / maximum excitation wavelength: fluorescence spectrophotometer; for fluorescence in solution state: stain prepared as a solution, red wavelength region. How it is done: Brilliant Green (manufactured by Sigma-Aldrich Company, B4014-25G) was adjusted with distilled water to a concentration of 0.001 mg/mL, and the light absorbance was continuously measured over a wavelength range from 200 to 750 nm using a spectrophotometer (manufactured by Shimadzu Corporation, BioSpec-1600) to determine the wavelength at which the absorption was the maximum. The maximum absorption wavelength of 625 nm thus obtained was irradiated as an excitation wavelength, and the wavelength of the scattered light detected in the perpendicular direction to the light axis of the excitation light was measured using a fluorescence spectrophotometer (manufactured by Shimadzu Corporation, RF-1500), thus to obtain a maximum fluorescence wavelength of 625 nm. The maximum excitation wavelength measured using this fluorescence spectrophotometer was 627 nm.
This implies that the compound is not undergoing the process of excitation by an irradiated light and emission of fluorescence.
As a comparison to Brilliant Green, the wavelength pattern of Rhodamine B, which stains the inner part of cells in the lumen of the large intestine or the like in the same manner as Brilliant Green does, was measured.

For series [2], the target named is T1, Albumin (from Bovine Serum, Globulin Free) (Bos taurus, UniProt P02769).
T1 construct: Albumin (from Bovine Serum, Globulin Free); purchased Wako Pure Chemical Industries, Ltd. 013-15104; host or cells: bovine serum
Description: Fluorescence spectrum of liquid mixture of Brilliant Green and albumin. It counts as physicochemical. How it is done: Brilliant Green (manufactured by Sigma-Aldrich Company, B4014-25G) was prepared as a solution at 0.1 mg/mL using distilled water. Albumin (from Bovine Serum, Globulin Free; Wako Pure Chemical Industries, Ltd., 013-15104) was prepared as a solution at 2.0 mg/mL using physiological saline. Using a 0.1 M phosphate buffer solution (pH 5) and the 2.0 mg/mL albumin solution prepared above, a liquid mixture of 0.01 mg/mL Brilliant Green and albumin was prepared. The maximum absorption wavelength of Brilliant Green of 625 nm was irradiated as the excitation wavelength, and the wavelength of the scattered light detected in the perpendicular direction to the light axis of the excitation light, was measured using a spectrophotometer (manufactured by Shimadzu Corporation, RF-1500). The maximum fluorescence wavelength was 651 nm.
As a comparison to the liquid mixture of Brilliant Green and albumin, the maximum fluorescence wavelength of an albumin solution was measured with respect to an excitation wavelength of 625 nm, which was shown in FIG. 4.

In the next series the test system is large intestine. Briefly: Fluorescence observation of extracted large intestine stained with the dye, confocal microscope. Also on record: species or system mouse. How it is done: Brilliant Green (manufactured by Sigma-Aldrich Company, B4014-25G) was prepared as a solution using distilled water, and the concentration was adjusted to 1.0 mg/mL.
A mouse (ddY, 13 weeks old, male) was subjected to laparotomy under anesthesia, and the large intestine was extracted. Immediately after extraction, the prepared solution of Brilliant Green was applied onto the large intestine, and fluorescence observation of the specimen by a confocal imaging system using a confocal microscope (manufactured by Leica Corp., TCPSP2) was performed. Here, the stainability, penetrability, and fluorescence properties of Brilliant Green were examined.
Observation was performed for the cross-sections at every 5 μm from the luminal surface layer of the flesh specimen of extracted large intestine, to the depth direction (FIG. 5).

T1 sequence (P02769 25-607): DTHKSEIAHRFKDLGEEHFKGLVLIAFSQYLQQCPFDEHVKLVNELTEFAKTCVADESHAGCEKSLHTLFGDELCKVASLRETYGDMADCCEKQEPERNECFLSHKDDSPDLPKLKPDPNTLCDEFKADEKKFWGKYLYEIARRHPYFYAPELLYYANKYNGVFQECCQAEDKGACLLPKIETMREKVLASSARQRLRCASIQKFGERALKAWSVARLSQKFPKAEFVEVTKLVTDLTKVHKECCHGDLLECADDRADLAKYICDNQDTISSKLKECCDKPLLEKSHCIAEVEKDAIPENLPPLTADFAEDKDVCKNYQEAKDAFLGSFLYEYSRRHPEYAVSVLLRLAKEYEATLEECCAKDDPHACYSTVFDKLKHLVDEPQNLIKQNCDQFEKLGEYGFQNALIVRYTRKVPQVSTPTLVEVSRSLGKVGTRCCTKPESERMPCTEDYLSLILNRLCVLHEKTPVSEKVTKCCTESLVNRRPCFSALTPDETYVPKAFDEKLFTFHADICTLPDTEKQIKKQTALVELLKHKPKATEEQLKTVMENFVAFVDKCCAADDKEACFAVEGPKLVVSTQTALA

For `CCN(CC)c1ccc(C(=C2C=CC(=[N+](CC)CC)C=C2)c2ccccc2)cc1.O=S(=O)([O-])O` [Brilliant Green], in series [1], the maximum absorption wavelength is 625 nm, the maximum fluorescence wavelength worked out at 625 nm, the maximum excitation wavelength is reported as 627 nm and the “fluorescence in solution state” value is given as “no fluorescence was detected”. The maximum fluorescence wavelength in series [2] (0.01 mg/mL Brilliant Green with albumin, 0.1 M phosphate buffer pH 5, excitation 625 nm) was determined as 651 nm. Besides, the “fluorescence when bound to albumin” value in series [2] (light source in the red wavelength region) was “emits fluorescence, when bound to albumin”. The “depth to which observation could be sufficiently made from the luminal surface layer” value with large intestine (1.0 mg/mL solution applied onto extracted mouse large intestine, cross-sections every 5 μm) stood at 35 μm. Also, the “stainability of the tissue (cross-sectional images)” value in the series with large intestine (1.0 mg/mL, sites 10 μm and 15 μm deep from the surface layer) is “The cytoplasm is well stained, while the interstitial space is contrastively dark”.

With `CCN(CC)c1ccc2c(-c3ccccc3C(=O)O)c3ccc(=[N+](CC)CC)cc-3oc2c1.[Cl-]` [Rhodamine B, reference compound], the “fluorescence in solution state” value in series [1] was “exhibits intense fluorescence even in a solution state”.

Consider `CCN(Cc1cccc(S(=O)(=O)[O-])c1)c1ccc(C(=C2C=CC(=[N+](CC)Cc3cccc(S(=O)(=O)[O-])c3)C=C2)c2ccccc2S(=O)(=O)[O-])cc1.[Na+].[Na+]` [Brilliant Blue FCF, reference compound], for which, in series [1], the maximum absorption wavelength was determined as 629 nm, the maximum fluorescence wavelength stood at 650 nm and the maximum excitation wavelength was determined as 619 nm.
